Measured values reported in US20180221241A1, “ENHANCEMENT OF VASODILATORY FUNCTION AND LOWERING OF EFFECTIVE SYSTEMIC VASCULAR RESISTANCE” (THE GOVERNORS OF THE UNIVERSITY OF ALBERTA, priority 2015, published 2018).

System: second order mesenteric resistance arteries
Assay: Pressure myograph system, vessel lumen diameter under controlled barometric pressure
Set-up: species or system mice
Conditions: for maximal increase in lumen diameter, cumulative response curve to methylcholine: doses 1 nM to 1 μM, barometric pressure PB674; for constriction or relaxation of vessel to drug administered in the bath: vessels immersed in Ca2+-free solution, n=7, p>0.05
Description: Four-month-old male C57 mice were given access to standard chow and water ad-libitum and were housed on a 12 h-12 h light-dark cycle. Mice were euthanized through sodium pentobarbital administered interperitonially, and their mesenteries were removed and placed in freshly prepared cold physiological salt solution (10 HEPES, 5.5 glucose, 1.56 CaCl2, 4.7 KCl, 142 NaCl, 1.17 MgSO4, 1.18 KH2PO4, pH 7.5.).
Two second order resistance arteries were dissected of surrounding connective tissue and mounted within a pressure myograph system (Living Systems Instrumentation; Burlington, Vt.). Vessels were tied onto glass cannulas with microscopic suture thread segments. Each vessel was immersed in a physiological salt solution bath, maintained at a temperature of 37° C. with the aid of a built-in temperature feedback mechanism connected to a miniature heating system. Intravascular pressure and flow were measured and alterable using pressure and flow control systems. A peristaltic pump was used to maintain specific rates of flow across the lumens vessels mounted in the pressure myograph system. To mimic physiological conditions as best as possible, the vessels were oriented as such that flow would be applied in the same direction as in vivo blood flow. The vessels were maintained at a perfusion pressure of 60 mmHg, the approximated in vivo mesentery arterial pressure of mice.
Vessels were exposed to phenylephrine and methylcholine before the start of every protocol to ensure the vessel was intact and capable of responding to pressure and flow stimuli. In some protocols, one bath of the pressure myograph was infused with inhibitors of nitric oxide synthase and prostacyclins to inhibit the action of these two major endogenous endothelial vasodilators. This was performed in order to assess the effect of barometric pressure on mesenteric arteries isolated from the vasoactive influences of nitric oxide and prostacyclins.
The entire myograph system was enclosed within a barometric pressure controlled chamber, capable of being sealed and pressure-controlled when necessary (FIG. 11). A control pressure was established on the pressure sensor in relation to the atmospheric pressure denoted by the meteorological service of Canada (Edmonton station). Pressure conditions PB714 and PB674 were assigned as 40 mmHg and 80 mmHg below atmospheric pressure, respectively. The conditions were maintained through a pressure apparatus.
A pressure transducer and flow regulator coupled with a peristaltic pump mechanisms was set up so as to be manipulated from outside upon sealing the barometric pressure chamber around the myograph system. […]
Vessel diameters and wall thicknesses were recorded with the help of a microscope-coupled micrometer. […]

| SMILES | maximal increase in lumen diameter, cumulative response curve to methylcholine (with L-NAME and meclofenamate (FIG. 4B)) [%] | maximal increase in lumen diameter, cumulative response curve to methylcholine (without inhibitors (FIG. 4A)) [%] | constriction or relaxation of vessel to drug administered in the bath |
| --- | --- | --- | --- |
| CC(=O)OC(C)C[N+](C)(C)C (stereo not shown) | 133 | 122 | no constriction to phenylephrine or relaxation |
| CNC[C@H](O)c1cccc(O)c1 [phenylephrine] | – | – | no constriction |
